{"source": "ChEMBL document CHEMBL6114979", "about": "“Discovery of 3-indolylbenzoquinone derivatives with therapeutic potential for breast cancer” (Bioorg Med Chem, 2025)", "key": {"4T1 [1]": {"system": "4T1", "assay": "Antitumor activity against mouse 4T1 cells implanted in Balb/c mouse assessed as appearance of vacuolation at 25 to 35 mg/kg, ip administered once every 2 days for 14 days by TEM analysis", "format": "functional, organism-based", "conditions": "dose 25-35 mg/kg, time 14.0 day"}, "4T1 [2]": {"system": "4T1", "assay": "Antitumor activity against mouse 4T1 cells implanted in Balb/c mouse assessed as lighter tumor at 200 mg/kg, TOP administration once every 2 days for 14 days", "format": "functional, organism-based", "conditions": "time 14.0 day"}, "[3]": {"assay": "Toxicity in Kunming mouse assessed as change in spleen lesions at 240 to 469 mg/kg, ip administered for 14 days by H and E staining based analysis", "format": "organism-based", "conditions": "in vivo, 336 h, dose 240-469 mg/kg, time 14 day"}, "[4]": {"assay": "Toxicity in Kunming mouse assessed as change in heart lesions at 240 to 469 mg/kg, ip administered for 14 days by H and E staining based analysis", "format": "organism-based", "conditions": "in vivo, 336 h, dose 240-469 mg/kg, time 14 day"}, "[5]": {"assay": "Nephrotoxicity in Kunming mouse assessed as change in BUN level administered intraperitoneally for 14 days (reference value: 8.65 +/- 2.66 U)", "format": "toxicity", "conditions": "in vivo, ip, 336 h, time 14 day"}, "4T1 [6]": {"system": "4T1", "assay": "Antitumor activity against mouse 4T1 cells implanted in Balb/c mouse assessed as appearance of nuclear membrane disruption at 80 mg/kg, IT administered once every 4 days for 14 days in presence of olive oil by TEM analysis", "format": "functional, organism-based", "conditions": "time 14.0 day"}, "4T1 [7]": {"system": "4T1", "assay": "Antitumor activity against mouse 4T1 cells implanted in Balb/c mouse assessed as appearance of extensive tumor cell necrosis at 25 mg/kg, ip administered once every 2 days for 14 days", "format": "functional, organism-based", "conditions": "time 14.0 day"}, "4T1 [8]": {"system": "4T1", "assay": "Antitumor activity against mouse 4T1 cells implanted in Balb/c mouse assessed as reduction in tumor size at 25 to 35 mg/kg, ip administered once every 2 days 14 days", "format": "functional, organism-based", "conditions": "dose 25-35 mg/kg, time 14.0 day"}, "4T1 [9]": {"system": "4T1", "assay": "Antitumor activity against mouse 4T1 cells implanted in Balb/c mouse assessed as reduction in tumor size at 80 mg/kg, IT administered once every 4 days in presence of olive oil", "format": "functional, organism-based"}, "MDA-MB-231 [10]": {"system": "MDA-MB-231", "assay": "Induction of apoptosis in human MDA-MB-231 cells assessed as early apoptotic cells at 1 uM incubated for 24 hrs by Annexin-V/PI staining based flow cytometric analysis (reference value: 2.69%)", "format": "functional"}, "4T1 [11]": {"system": "4T1", "assay": "Antitumor activity against mouse 4T1 cells implanted in Balb/c mouse assessed as appearance of vacuolation at 80 mg/kg, IT administered once every 4 days for 14 days in presence of olive oil by TEM analysis", "format": "functional, organism-based", "conditions": "time 14.0 day"}, "4T1 [12]": {"system": "4T1", "assay": "Antitumor activity against mouse 4T1 cells implanted in Balb/c mouse assessed as appearance of larger intercellular gaps at 80 mg/kg, IT administered once every 4 days for 14 days in presence of olive oil by TEM analysis", "format": "functional, organism-based", "conditions": "time 14.0 day"}, "[13]": {"assay": "Toxicity in Kunming mouse assessed as infiltration of chronic inflammatory cells at 240 to 469 mg/kg, ip administered for 14 days by H and E staining based analysis", "format": "organism-based", "conditions": "in vivo, 336 h, dose 240-469 mg/kg, time 14 day"}, "[14]": {"assay": "Solubility of compound in 0.1 M HCL", "format": "physicochemical"}, "MDA-MB-231 [15]": {"system": "MDA-MB-231", "assay": "Induction of cell cycle arrest in human MDA-MB-231 cells assessed as accumulation of cells at S phase at 1 uM incubated for 24 hrs by PI staining based flow cytometric analysis (reference value: 8.71%)", "format": "functional"}, "[16]": {"assay": "Toxicity in female Balb/c mouse implanted with mouse 4T1 cells assessed as tumor metastasis to lungs at 25 mg/kg, ip administered once every 2 days for 14 days", "format": "organism-based", "conditions": "in vivo, 336 h, time 14 day"}, "[17]": {"assay": "Hepatotoxicity in Kunming mouse assessed as change in ALT level administered intraperitoneally for 14 days (reference value: 45.75 +/- 4.65 U)", "format": "toxicity", "conditions": "in vivo, ip, 336 h, time 14 day"}, "MDA-MB-231 [18]": {"system": "MDA-MB-231", "assay": "Induction of apoptosis in human MDA-MB-231 cells assessed as viable cells at 1 uM incubated for 24 hrs by Annexin-V/PI staining based flow cytometric analysis (reference value: 93.37%)", "format": "functional", "conditions": "read-out: Activity"}, "MDA-MB-231 [19]": {"system": "MDA-MB-231", "assay": "Induction of apoptosis in human MDA-MB-231 cells assessed as necrotic cells at 1 uM incubated for 24 hrs by Annexin-V/PI staining based flow cytometric analysis (reference value: 0.71%)", "format": "functional"}, "MDA-MB-231 [20]": {"system": "MDA-MB-231", "assay": "Induction of apoptosis in human MDA-MB-231 cells assessed as increase in green fluorescence at 1 uM incubated for 24 hrs in presence of doxorubicin by fluorescence microscopic analysis", "format": "functional, cell-based"}, "4T1 [21]": {"system": "4T1", "assay": "Antitumor activity against mouse 4T1 cells implanted in Balb/c mouse assessed as appearance of irregular necrotic foci at 25 mg/kg, ip administered once every 2 days for 14 days", "format": "functional, organism-based", "conditions": "time 14.0 day"}, "4T1 [22]": {"system": "4T1", "assay": "Antitumor activity against mouse 4T1 cells implanted in Balb/c mouse assessed as appearance of mitochondrial swelling at 200 mg/kg, TOP administration once every 2 days for 14 days", "format": "functional, organism-based", "conditions": "time 14.0 day"}, "[23]": {"assay": "Cardiotoxicity in Kunming mouse assessed as change in LDH level administered intraperitoneally for 14 days (reference value: 1253 +/- 67.28 U)", "format": "toxicity", "conditions": "in vivo, ip, 336 h, time 14 day"}, "[24]": {"assay": "Toxicity in female Balb/c mouse implanted with mouse 4T1 cells assessed as change in body weight at 25 to 35 mg/kg, ip administered once every 2 days", "format": "organism-based", "conditions": "in vivo, 48 h, dose 25-35 mg/kg, time 2 day"}, "MDA-MB-231 [25]": {"system": "MDA-MB-231", "assay": "Induction of cell cycle arrest in human MDA-MB-231 cells assessed as accumulation of cells at G2/M phase at 1 uM incubated for 24 hrs by PI staining based flow cytometric analysis (reference value: 33.98%)", "format": "functional"}, "4T1 [26]": {"system": "4T1", "assay": "Antitumor activity against mouse 4T1 cells implanted in Balb/c mouse assessed as smaller tumor at 200 mg/kg, TOP administration once every 2 days for 14 days", "format": "functional, organism-based", "conditions": "time 14.0 day"}, "[27]": {"assay": "Nephrotoxicity in Kunming mouse assessed as change in CREA level administered intraperitoneally for 14 days (reference value: 16 +/- 2.45 U)", "format": "toxicity", "conditions": "in vivo, ip, 336 h, time 14 day"}, "4T1 [28]": {"system": "4T1", "assay": "Antitumor activity against mouse 4T1 cells implanted in Balb/c mouse assessed as appearance of loosely arranged tumor cells at 35 mg/kg, ip administered once every 2 days for 14 days", "format": "functional, organism-based", "conditions": "time 14.0 day"}, "[29]": {"assay": "Toxicity in female Balb/c mouse implanted with mouse 4T1 cells assessed as mortality at 25 to 35 mg/kg, ip administered once every 2 days", "format": "organism-based", "conditions": "in vivo, 48 h, dose 25-35 mg/kg, time 2 day"}, "4T1 [30]": {"system": "4T1", "assay": "Antitumor activity against mouse 4T1 cells implanted in Balb/c mouse assessed as appearance of chromatin aggregation at 25 to 35 mg/kg, ip administered once every 2 days for 14 days by TEM analysis", "format": "functional, organism-based", "conditions": "dose 25-35 mg/kg, time 14.0 day"}, "4T1 [31]": {"system": "4T1", "assay": "Antitumor activity against mouse 4T1 cells implanted in Balb/c mouse assessed as tumor inhibition rate at 200 mg/kg, TOP administration once every 2 days for 14 days relative to control", "format": "functional", "parameters": "scale not given: the % may be the effect or the level left", "conditions": "time 14 day"}, "[32]": {"assay": "Toxicity in Kunming mouse assessed as appearance of mononuclear macrophages in alveolar lumen at 240 to 469 mg/kg, ip administered for 14 days by H and E staining based analysis", "format": "organism-based", "conditions": "in vivo, 336 h, dose 240-469 mg/kg, time 14 day"}, "4T1 [33]": {"system": "4T1", "assay": "Antitumor activity against mouse 4T1 cells implanted in Balb/c mouse assessed as appearance of mitochondrial swelling at 25 to 35 mg/kg, ip administered once every 2 days for 14 days by TEM analysis", "format": "functional, organism-based", "conditions": "dose 25-35 mg/kg, time 14.0 day"}}, "note": "The source made the active and inactive calls. The calls are words filed in the database; no cut-off is given here.", "data": [{"smiles": "Cc1[nH]c2ccccc2c1C1=C(F)C(=O)C(F)=C(N2CCOCC2)C1=O", "values": [{"measurement": "Activity", "setting": "4T1 [1]", "result": "Active"}, {"measurement": "Activity", "setting": "4T1 [2]", "result": "Active"}, {"measurement": "Activity", "setting": "[3]", "result": "Non-toxic"}, {"measurement": "Activity", "setting": "[4]", "result": "Non-toxic"}, {"measurement": "Activity", "setting": "[5]", "result": 6.26, "unit": "U"}, {"measurement": "Activity", "setting": "4T1 [6]", "result": "Active"}, {"measurement": "Activity", "setting": "4T1 [7]", "result": "Active"}, {"measurement": "Activity", "setting": "4T1 [8]", "result": "Active"}, {"measurement": "Activity", "setting": "4T1 [9]", "result": "Active"}, {"measurement": "Activity", "setting": "MDA-MB-231 [10]", "result": 24.53, "unit": "%"}, {"measurement": "Activity", "setting": "4T1 [11]", "result": "Active"}, {"measurement": "Activity", "setting": "4T1 [12]", "result": "Active"}, {"measurement": "Activity", "setting": "[13]", "result": "Toxic"}, {"measurement": "solubility", "setting": "[14]", "result": 19, "unit": "µg/mL"}, {"measurement": "Activity", "setting": "MDA-MB-231 [15]", "result": 4.21, "unit": "%"}, {"measurement": "Activity", "setting": "[16]", "result": "Toxic"}, {"measurement": "Activity", "setting": "[17]", "result": 28.8, "unit": "U/L"}, {"measurement": "viability at 1 µM", "setting": "MDA-MB-231 [18]", "result": 45.1, "unit": "%"}, {"measurement": "Activity", "setting": "MDA-MB-231 [19]", "result": 3.93, "unit": "%"}, {"measurement": "Activity", "setting": "MDA-MB-231 [20]", "result": "Active; Compound Showed More Effect Than Mitoxantrone Treated Group"}, {"measurement": "Activity", "setting": "4T1 [21]", "result": "Active"}, {"measurement": "Activity", "setting": "4T1 [22]", "result": "Active"}, {"measurement": "Activity", "setting": "[23]", "result": 1060, "unit": "U/L"}, {"measurement": "Activity", "setting": "[24]", "result": "Non-toxic"}, {"measurement": "Activity", "setting": "MDA-MB-231 [25]", "result": 63.64, "unit": "%"}, {"measurement": "Activity", "setting": "4T1 [26]", "result": "Active"}, {"measurement": "Activity", "setting": "[27]", "result": 12.25, "unit": "U"}, {"measurement": "Activity", "setting": "4T1 [28]", "result": "Active"}, {"measurement": "Activity", "setting": "[29]", "result": "Non-toxic"}, {"measurement": "Activity", "setting": "4T1 [30]", "result": "Active"}, {"measurement": "Activity", "setting": "4T1 [31]", "result": 38.9, "unit": "%"}, {"measurement": "Activity", "setting": "[32]", "result": "Toxic"}, {"measurement": "Activity", "setting": "4T1 [33]", "result": "Active"}]}]}
